{
  "source": "patent US20260200903A1",
  "about": "“PHARMACEUTICAL COMPOSITION FOR AMELIORATING MALIGNANT DISEASES” (KINKI UNIVERSITY, priority 2020, published 2026)",
  "type_in_all_cases": "cell-based",
  "key": {"[1]": {"tested_on": "L363 cells (myeloma cell line)", "test": "Cell death inducing effect on L363 cells, trypan blue staining", "settings": "Homo sapiens, L-363, cell viability", "description": "(§1) L363 cells (myeloma cell line) were cultured under 5% CO2 at 37° C. The culture medium used RPMI-1640 medium with 100 μg/mL penicillin, 100 U/mL streptomycin and fetal bovine serum. L363 cells were seeded into 96-well plates and incubated with each concentration of the compounds was added, and cell viability was determined by the trypan blue staining.\n(§2) For controls, only 0.5% DMSO (diluted in PBS) used to dissolve the compounds was added. For each concentration, each bar line is indicated by an arrow with the sign “n, a, 1, 2, 3, 4, 5, 6, 7, 8, 9, 10, 11, 12” from left to right. The “1, 3, 5, 7, 9, 11” are omitted from the graph, but the sign “1” shall be indicated by an arrow between the signs “a” and “2”, the sign “3” between the signs “2” and “4”, and other odd numbers shall likewise be indicated by arrows between even numbers before and after.\n(§3) The sign “n” is the norathyriol (formula (n)) administration group, the sign “a” is the mangiferin 8a (formula (a)) administration group, the sign “1” is the yk-7 (formula (1)) administration group, the sign “2” is the yk-8-1 (formula (2)) administration group, the sign “3” is the yk-8-3 (formula (3)) administration group, the sign “4” is the M7 (formula (4)) administration group, the sign “5” is the M9 (formula (5)) administration group, the sign “6” is the M11 (formula (6)) administration group, the sign “7” is the M12 (formula (7)) administration group, the sign “8” is the M14 (formula (8)) administration group, the sign “9” is the M15 (formula (9)) administration group, the sign “10” is the M16 (formula (10)) administration group, the sign “11” is the M18 (formula (11)) administration group, the sign “12” is the M19 (formula (12)) administration group, respectively. The IC50 values for each compound is also listed in the upper right corner of the figure."}, "[2]": {"tested_on": "RPMI8226/B cells (bortezomib-resistant myeloma cell line)", "test": "Cell death inducing effect on RPMI8226/B cells, trypan blue staining", "settings": "Homo sapiens, RPMI-8226; RPMI8226/B (myeloma; bortezomib resistance), cell viability", "description": "as §1, with “RPMI8226/B” for “L363”, “(bortezomib-resistant myeloma” for “(myeloma”\nas §2, §3"}, "[3]": {"tested_on": "Raji cells (burkitt lymphoma cell line)", "test": "Cell death inducing effect on Raji cells, trypan blue staining", "settings": "Homo sapiens; Raji (Burkkit lymphoma), cell viability", "description": "as §1, with “Raji” for “L363”, “(burkitt lymphoma” for “(myeloma”\nas §2, §3"}, "[4]": {"tested_on": "phospho-IKK", "test": "Immunoblotting of phospho-IKK in KMS-28BM cells", "settings": "72 h, vs control, same concentrations as for phospho-NIK (0.005-100 μM)", "description": "Immunoblotting was performed on KMS-28BM cells to investigate the inhibitory effect of each compound administration on NIK inhibition and the activation of IKK, NF-κB p52, and NF-κB p65, which are downstream signals of NIK. As a result, inhibition of NIK activation, inhibition of IKK activity, and inhibition of nuclear translocation of NF-κB p52 and NF-κB p65 were observed (FIG. 15 and FIG. 16).\nAs a control, compounds untreated KMS-28BM cells were seeded in 150 cm^2 flasks and incubated for 72 h at 37° C. and 5% CO2. KMS-28BM cells were seeded into 150 cm^2 flasks and pre-cultured for 24 h. After incubation, KMS-28BM cells were treated with […], 1 μM norathyriol, 0.5 μM M7 (formula (4)), 1 μM M8 (mangiferin 8a: listed in duplicate), 0.2 μM M9 (formula (5)), 5 μM yk-7 (formula (1)), 0.5 μM yk-8-3 (formula (3)) and 100 μM yk-8-1 (formula (2)) at final concentrations, and incubated for 72 h at 37° C. and 5% CO2. In addition, KMS-28BM cells were also treated with 0.5 μM M19 (formula (12)), 0.5 μM M18 (formula (11)), 0.005 μM M16 (formula (10)), […] (formula (9)), 0.005 μM M14 (formula (8)), 0.05 μM M12 (formula (7)) and […] (formula (6)) at the final concentrations, and incubated for 72 h at 37° C. and 5% CO2. Proteins were extracted from these cell suspensions with cell lysate and used as samples.\nThe nucleus and cytoplasmic substrate were separated from the cells using the ProteoExtract (registered trademark) Subcellular Proteome Extraction Kit from Merck Ltd. to extract the cytoplasmic and nuclear fractions.\nAfter SDS-PAGE, each sample was transferred to a PVDF membrane and examined using anti-phospho-NIK, anti-NIK, anti-phospho-IKK, anti-IKK, anti-P-actin, anti-NF-κB p52 and anti-NF-κB p65 antibody, and anti-Lamin antibody.\nThe antibody species is indicated in the vertical direction. Specifically, for anti-phospho-NIK antibody, “Phospho-NIK” was used, for anti-NIK antibody, “NIK” was used, for anti-phospho-IKK antibody, “Phospho-IKK” was used, for anti-IKK antibody, “IKK” was used, for anti-p-actin antibody, “p-actin” was used, for anti-NF-κB p52 antibody, “NF-κB p52 nuclear” was used, for anti-NF-κB p65 antibody, “NF-κB p65 nuclear” was used, and for anti-Lamin antibody, “Lamin” was used."}, "[5]": {"tested_on": "CD20", "test": "CD20 expression in L363 cells, flow cytometry", "settings": "10 days, concentration lower than the IC50 (0.005-50 μM), compared to the positive control", "description": "As a control, compounds untreated L363 cells were seeded in 75 cm^2 flasks and incubated for 10 days at 37° C. and 5% CO2. L363 cells were seeded into 75 cm^2 flasks and pre-cultured for 4 h. After incubation, L363 cells were treated with 0.1 μM M7, 0.05 μM M9, 0.1 μM yk-7, 0.1 μM yk-8-3, 50 μM yk-8-1, 0.1 μM M11, 0.01 μM M12, 0.005 μM M14, 0.005 μM M15, 0.005 μM M16, 1 μM M18, and 1 μM M19 at final concentrations, and incubated for 10 days at 37° C. and 5% CO2. This added amount is a concentration lower than the IC50 of the above compounds for L363 cells. After 10 days of incubation, cells were stained with anti-CD20 antibody, a B cell marker, and CD20 expression was measured using BD LSRFortessa. CCRF-SB cells were used as CD20-positive controls.\nResults are shown in FIG. 29, FIG. 30, FIG. 31, and FIG. 32. The horizontal axis represents the expression level of CD20 and the vertical axis represents the number of cells."}},
  "data": [
    {"smiles": "CCCC(=O)OC[C@H]1O[C@@H](c2c(O)cc3oc4cc(O)c(O)cc4c(=O)c3c2O)[C@H](OC(=O)CCC)[C@@H](OC(=O)CCC)[C@@H]1OC(=O)CCC", "note": "[Compound M14, 2′,3′,4′,6′-tetra-O-butyrylmangiferin]", "values": [
      {"measurement": "IC50", "setting": "[1]", "result": 0.029, "unit": "µM"},
      {"measurement": "IC50", "setting": "[2]", "result": 0.051, "unit": "µM"},
      {"measurement": "IC50", "setting": "[3]", "result": 0.085, "unit": "µM"},
      {"measurement": "phospho-IKK band density (anti-phospho-IKK antibody)", "setting": "[4]", "result": "decrease in band density"},
      {"measurement": "CD20 expression level", "setting": "[5]", "result": "significantly increased"}
    ]}
  ]
}
